# Laboratory results taken from US20250312352A1, “GLP-1R MODULATING COMPOUNDS” (Gilead Sciences, Inc., priority 2021, published 2025).
# pEC50: −log10 of the molar value.
# Molecular target: T1, GLP-1R (Homo sapiens, UniProt P43220)
# T1 construct: host or cells: CHO cells
# Test: GLP-1R activation cAMP assay (Assay 1 or Assay 2)
# Format: cell-based
# Conditions: cAMP increase in CHO cells stably expressing GLP-1R; compounds run on one of the two cAMP assays
# Summary of the method: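 EC50 values come from a sigmoidal fit of HTRF-detected cAMP rise versus log agonist concentration. GLP-1R-expressing CHO cells, equilibrated 1 h at 37 °C in HBSS with HEPES and BSA, received a 10-point compound dose series for 30 min before detection.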
# T1 sequence (P43220 24-463): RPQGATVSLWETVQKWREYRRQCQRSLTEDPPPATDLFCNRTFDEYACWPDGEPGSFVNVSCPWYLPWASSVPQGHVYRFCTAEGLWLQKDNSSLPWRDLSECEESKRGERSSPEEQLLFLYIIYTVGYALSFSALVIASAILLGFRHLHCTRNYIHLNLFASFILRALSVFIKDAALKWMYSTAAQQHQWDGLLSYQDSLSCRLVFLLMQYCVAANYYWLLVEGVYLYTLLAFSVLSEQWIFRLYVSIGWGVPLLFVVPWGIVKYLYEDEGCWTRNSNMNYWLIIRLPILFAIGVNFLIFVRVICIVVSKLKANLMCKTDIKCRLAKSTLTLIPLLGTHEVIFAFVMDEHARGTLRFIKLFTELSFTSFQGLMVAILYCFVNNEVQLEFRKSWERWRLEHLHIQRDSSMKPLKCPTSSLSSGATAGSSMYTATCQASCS
row,Compound,pEC50
1,"NC(=O)c1ccc(COc2cccc(-c3cc(F)c(Cc4nc5ccc(C(=O)O)cc5n4C[C@@H]4CCO4)cc3F)n2)o1 [Example 171, (S)-2-(4-(6-((5-carbamoylfuran-2-yl)methoxy)pyridin-2-yl)-2,5-difluorobenzyl)-1-(oxetan-2-ylmethyl)-1H-benzo[d]imidazole-6-carboxylic acid]",8.53
2,"O=C(O)c1ccc2nc(Cc3cc(F)c(-c4cccc(OCc5cc(C(F)(F)F)co5)n4)cc3F)n(C[C@@H]3CCO3)c2c1 [Example 18, (S)-2-(2,5-difluoro-4-(6-((4-(trifluoromethyl)furan-2-yl)methoxy)pyridin-2-yl)benzyl)-1-(oxetan-2-ylmethyl)-1H-benzo[d]imidazole-6-carboxylic acid]",9.49
3,"N#Cc1ncc(COc2cccc(-c3cc(F)c(Cc4nc5ccc(C(=O)O)cc5n4C[C@@H]4CCO4)cc3F)n2)s1 [Example 166, (S)-2-(4-(6-((2-cyanothiazol-5-yl)methoxy)pyridin-2-yl)-2,5-difluorobenzyl)-1-(oxetan-2-ylmethyl)-1H-benzo[d]imidazole-6-carboxylic acid]",9.21
4,"COCCn1c(Cc2cc(F)c(-c3cccc(OCc4ccc(C#CC5CN(C(=O)OC)C5)cc4F)n3)cc2F)nc2ccc(C(=O)O)cc21 [Example 235, 2-[[2,5-difluoro-4-[6-[[2-fluoro-4-[2-(1-methoxycarbonylazetidin-3-yl)ethynyl]phenyl]methoxy]-2-pyridyl]phenyl]methyl]-3-(2-methoxyethyl)benzimidazole-5-carboxylic acid]",8.96
5,"COc1nnc(COc2cccc(-c3ccc(Cc4nc5ccc(C(=O)O)cc5n4[C@@H]4COCC4(C)C)c(F)c3)n2)s1 [Example 401, (S)-1-(4,4-dimethyltetrahydrofuran-3-yl)-2-(2-fluoro-4-(6-((5-methoxy-1,3,4-thiadiazol-2-yl)methoxy)pyridin-2-yl)benzyl)-1H-benzo[d]imidazole-6-carboxylic acid]",9.31
6,"CCn1cc(Cl)c(COc2cccc(-c3cc(F)c(Cc4nc5ccc(C(=O)O)cc5n4C[C@@H]4CCO4)cc3F)n2)n1 [Example 76, (S)-2-(4-(6-((4-chloro-1-ethyl-1H-pyrazol-3-yl)methoxy)pyridin-2-yl)-2,5-difluorobenzyl)-1-(oxetan-2-ylmethyl)-1H-benzo[d]imidazole-6-carboxylic acid]",8.37
7,"O=C(O)c1ccc2nc(Cc3cc(F)c(-c4cccc(OCc5cn6cc(Cl)ccc6n5)n4)cc3F)n(C[C@@H]3CCO3)c2c1 [Example 32, (S)-2-(4-(6-((6-chloroimidazo[1,2-a]pyridin-2-yl)methoxy)pyridin-2-yl)-2,5-difluorobenzyl)-1-(oxetan-2-ylmethyl)-1H-benzo[d]imidazole-6-carboxylic acid]",9.10
8,"N#Cc1ncc(COc2cccc(-c3cc(F)c(Cc4nc5ccc(C(=O)O)cc5n4C[C@@H]4CCO4)cc3F)n2)o1 [Example 168, (S)-2-(4-(6-((2-cyanooxazol-5-yl)methoxy)pyridin-2-yl)-2,5-difluorobenzyl)-1-(oxetan-2-ylmethyl)-1H-benzo[d]imidazole-6-carboxylic acid]",7.67
9,"Cc1c(C#Cc2ccc(COc3cccc(-c4cc(F)c(Cc5nc6ccc(C(=O)O)cc6n5C[C@@H]5CCO5)cc4F)n3)c(F)c2)cnn1C [Example 364, (S)-2-(4-(6-((4-((1,5-dimethyl-1H-pyrazol-4-yl)ethynyl)-2-fluorobenzyl)oxy)pyridin-2-yl)-2,5-difluorobenzyl)-1-(oxetan-2-ylmethyl)-1H-benzo[d]imidazole-6-carboxylic acid]",9.03
10,"O=C(O)c1ccc2nc(Cc3cc(F)c(-c4cccc(OCc5ncc(C#CC6CCOC6)s5)n4)cc3F)n(C[C@@H]3CCO3)c2c1 (stereo partly drawn) [Example 322, 2-(2,5-difluoro-4-(6-((5-((tetrahydrofuran-3-yl)ethynyl)thiazol-2-yl)methoxy)pyridin-2-yl)benzyl)-1-(((S)-oxetan-2-yl)methyl)-1H-benzo[d]imidazole-6-carboxylic acid]",9.46
11,"O=C(O)c1ccc2nc(Cc3cc(F)c(-c4cccc(OCc5nnc(C#CC6CC(F)(F)C6)s5)n4)cc3F)n(C[C@@H]3CCO3)c2c1 [Example 330, (S)-2-(4-(6-((5-((3,3-difluorocyclobutyl)ethynyl)-1,3,4-thiadiazol-2-yl)methoxy)pyridin-2-yl)-2,5-difluorobenzyl)-1-(oxetan-2-ylmethyl)-1H-benzo[d]imidazole-6-carboxylic acid]",9.37
12,"O=C(O)c1ccc2nc(Cc3cc(F)c(-c4cccc(OCc5ccn(C(F)F)n5)n4)cc3F)n(C[C@@H]3CCO3)c2c1 [Example 9, (S)-2-(4-(6-((1-(difluoromethyl)-1H-pyrazol-3-yl)methoxy)pyridin-2-yl)-2,5-difluorobenzyl)-1-(oxetan-2-ylmethyl)-1H-benzo[d]imidazole-6-carboxylic acid]",9.02

# Results, then the compound that gave them:
row,pEC50,Compound
1,10.00,"O=C(O)c1cc(F)c2nc(Cc3cc(F)c(-c4cccc(OCc5ncc(C(F)(F)F)s5)n4)cc3F)n(CC3(CF)CC3)c2c1 [Example 412, 2-(2,5-difluoro-4-(6-((5-(trifluoromethyl)thiazol-2-yl)methoxy)pyridin-2-yl)benzyl)-4-fluoro-1-((1-(fluoromethyl)cyclopropyl)methyl)-1H-benzo[d]imidazole-6-carboxylic acid]"
2,10.10,"O=C(O)c1ccc2nc(Cc3cc(F)c(-c4cccc(OCc5ccc(-c6cn(C7CC7)nn6)cc5F)n4)cc3F)n(C[C@@H]3CCO3)c2c1 [Example 214, (S)-2-(4-(6-((4-(1-cyclopropyl-1H-1,2,3-triazol-4-yl)-2-fluorobenzyl)oxy)pyridin-2-yl)-2,5-difluorobenzyl)-1-(oxetan-2-ylmethyl)-1H-benzo[d]imidazole-6-carboxylic acid]"
3,10.55,"CC(F)(F)c1cnc(COc2cccc(-c3cc(F)c(Cc4nc5c(F)cc(C(=O)O)cc5n4C[C@@H]4CCO4)cc3F)n2)s1 [Example 318, (S)-2-(4-(6-((5-(1,1-difluoroethyl)thiazol-2-yl)methoxy)pyridin-2-yl)-2,5-difluorobenzyl)-4-fluoro-1-(oxetan-2-ylmethyl)-1H-benzo[d]imidazole-6-carboxylic acid]"
4,9.72,"CC1(C)COC[C@H]1n1c(Cc2cc(F)c(-c3ccc(F)c(OCc4ncc(C(F)(F)F)s4)n3)cc2F)nc2ccc(C(=O)O)cc21 [Example 415, (S)-2-(2,5-difluoro-4-(5-fluoro-6-((5-(trifluoromethyl)thiazol-2-yl)methoxy)pyridin-2-yl)benzyl)-1-(4,4-dimethyltetrahydrofuran-3-yl)-1H-benzo[d]imidazole-6-carboxylic acid]"
5,9.50,"CC1(C)COC[C@H]1n1c(Cc2cc(F)c(-c3cccc(OCc4ncc(C(F)(F)F)s4)n3)cc2F)nc2ccc(C(=O)O)cc21 [Example 414, (S)-2-(2,5-difluoro-4-(6-((5-(trifluoromethyl)thiazol-2-yl)methoxy)pyridin-2-yl)benzyl)-1-(4,4-dimethyltetrahydrofuran-3-yl)-1H-benzo[d]imidazole-6-carboxylic acid]"
6,9.92,"N#CC1(NC(=O)c2cc(Cl)c(COc3cccc(-c4cc(F)c(Cc5nc6ccc(C(=O)O)cc6n5C[C@@H]5CCO5)cc4F)n3)cn2)CC1 [Example 184, (S)-2-(4-(6-((4-chloro-6-((1-cyanocyclopropyl)carbamoyl)pyridin-3-yl)methoxy)pyridin-2-yl)-2,5-difluorobenzyl)-1-(oxetan-2-ylmethyl)-1H-benzo[d]imidazole-6-carboxylic acid]"
7,9.51,"N#Cc1ccc(COc2cccc(-c3cc(F)c(Cc4nc5ccc(C(=O)O)cc5n4C[C@@H]4CCO4)cc3F)n2)s1 [Example 126, (S)-2-(4-(6-((5-cyanothiophen-2-yl)methoxy)pyridin-2-yl)-2,5-difluorobenzyl)-1-(oxetan-2-ylmethyl)-1H-benzo[d]imidazole-6-carboxylic acid]"
8,10.10,"N#CC1(NC(=O)c2cc(Cl)c(COc3cccc(-c4cc(F)c(Cc5nc6c(F)cc(C(=O)O)cc6n5C[C@@H]5CCO5)cc4F)n3)cn2)CC1 [Example 185, (S)-2-(4-(6-((4-chloro-6-((1-cyanocyclopropyl)carbamoyl)pyridin-3-yl)methoxy)pyridin-2-yl)-2,5-difluorobenzyl)-4-fluoro-1-(oxetan-2-ylmethyl)-1H-benzo[d]imidazole-6-carboxylic acid]"
9,9.60,"Cc1ncc(C#Cc2ccc(COc3cccc(-c4cc(F)c(Cc5nc6ccc(C(=O)O)cc6n5C[C@@H]5CCO5)cc4F)n3)c(F)c2)o1 [Example 136, (S)-2-(2,5-difluoro-4-(6-((2-fluoro-4-((2-methyloxazol-5-yl)ethynyl)benzyl)oxy)pyridin-2-yl)benzyl)-1-(oxetan-2-ylmethyl)-1H-benzo[d]imidazole-6-carboxylic acid]"
10,9.96,"Cn1cc(-c2cnc(COc3cccc(-c4cc(F)c(Cc5nc6ccc(C(=O)O)cc6n5[C@H]5COCC5(C)C)cc4F)n3)s2)cn1 [Example 97, (R)-2-(2,5-difluoro-4-(6-((5-(1-methyl-1H-pyrazol-4-yl)thiazol-2-yl)methoxy)pyridin-2-yl)benzyl)-1-(4,4-dimethyltetrahydrofuran-3-yl)-1H-benzo[d]imidazole-6-carboxylic acid]"
11,10.52,"Cn1cc(-c2cnc(COc3nc(-c4cc(F)c(Cc5nc6c(F)cc(C(=O)O)cc6n5C[C@@H]5CCO5)cc4F)ccc3F)s2)cn1 [Example 98, (S)-2-(2,5-difluoro-4-(5-fluoro-6-((5-(1-methyl-1H-pyrazol-4-yl)thiazol-2-yl)methoxy)pyridin-2-yl)benzyl)-4-fluoro-1-(oxetan-2-ylmethyl)-1H-benzo[d]imidazole-6-carboxylic acid]"
12,9.92,"CNC(=O)c1cc(Cl)c(COc2cccc(-c3cc(Cl)c(Cc4nc5c(F)cc(C(=O)O)cc5n4CCOC)cc3F)n2)cn1 [Example 386, 2-(2-chloro-4-(6-((4-chloro-6-(methylcarbamoyl)pyridin-3-yl)methoxy)pyridin-2-yl)-5-fluorobenzyl)-4-fluoro-1-(2-methoxyethyl)-1H-benzo[d]imidazole-6-carboxylic acid]"
